The test system of one series is human erythrocytes. Briefly: Hemolytic activity. To be noted: 1 h incubation at 37 °C, 50% hemolysis. The format is cell-based. Here is the method:
Erythrocytes were obtained from human blood (AB(IV) Rh+) by centrifugation with phosphate-buffered saline (PBS) (pH 7.4) at 4 °C for 5 min by 450 g on a LABOFUGE 400R centrifuge (Heraeus, Hanau, Germany) three times. Then, the erythrocytes residue was resuspended in ice cold phosphate saline buffer (pH 7.4) to a final optical density of 1.5 at 700 nm and kept on ice. For the hemolytic assay, 180 µL of erythrocyte suspension was mixed with 20 µL of test compound solution, as well as control, chitonoidoside L [33], in V-bottom 96-well plates. After 1 h of incubation at 37 °C, the plates were exposed to centrifugation for 10 min at 900 g in a laboratory LMC-3000 centrifuge (Biosan, Riga, Latvia). Then, 100 µL of supernatant was carefully decanted and transferred into new flat plates. The values of the lysis of the erythrocytes were found by measuring the concentration of hemoglobin in the supernatant with a Multiskan FC microplate photometer (Thermo Fisher Scientific, Waltham, MA, USA); λ = 570 nm. […] All the experiments were carried out in triple repetitions; p < 0.01.

For the next series, the system named is HL-60 cells. Kind of series: Cytotoxic activity (MTS assay). The format is cell-based, human. To be noted: HL-60, MTS, 24 h; read-out: Cytotoxicity, IC50 HL-60. Here is the method:
Then, the cells were incubated with 10 µL MTS ([3-(4,5-dimethylthiazol-2-yl)-5-(3-carboxymethoxyphenyl)-2-(4-sulfophenyl)-2H-tetrazolium) for 4 h, and the absorbance in each well was determined at 490/630 nm with a PHERA star FS plate reader (BMG Labtech, Ortenberg, Germany). The experiments were conducted in triplicate.

A further series concerns HEK293 cells. Briefly: Cytotoxic activity (MTT assay). The series is classed as cell-based, human. To be noted: HEK293, MTT, 24 h; read-out: Cytotoxicity, IC50 HEK293. Here is the method:
(§1) After incubation, the glycosides with medium were replaced by 100 μL of fresh medium. Then, 10 μL of MTT (3-(4,5-dimethylthiazol-2-yl)-2,5-diphenyltetrazolium bromide) (Sigma-Aldrich, St. Louis, MO, USA) stock solution (5 mg/mL) was added to each well, followed by incubation of the microplate for 4 h. After this procedure, 100 μL of SDS-HCl solution (1 g SDS/10 mL d-H2O/17 μ[…] HCl) was added to each well and incubated for 18 h. The absorbance of the converted dye formazan was determined with a Multiskan FC microplate photometer (Thermo Fisher Scientific, Waltham, MA, USA) at 570 nm.
On the technique in general: Tetrazolium assays rely on reduction of a dye to a coloured formazan, in cell work by metabolically active cells.

A further series concerns MCF-7 cells. Briefly: Cytotoxic activity (MTT assay). To be noted: MCF-7, MTT, 24 h; read-out: Cytotoxicity, IC50 MCF-7. The series is classed as cell-based, human. The procedure:
as §1

The next series deals with T-47D cells. Kind of series: Cytotoxic activity (MTT assay). The series is classed as cell-based, human. To be noted: T-47D, MTT, 24 h; read-out: Cytotoxicity, IC50 T-47D. The procedure:
as §1

Series [1] deals with MDA-MB-231 cells. Briefly: Cytotoxic activity (MTT assay). The format is cell-based, human. To be noted: for IC50: MDA-MB-231, MTT, 24 h, read-out: Cytotoxicity, IC50 MDA-MB-231. The procedure:
as §1

Series [2] concerns MDA-MB-231 cells. Briefly: Colony formation (clonogenic) assay. The series is classed as cell-based, human. To be noted: MDA-MB-231, concentration 0.5 μM. Here is the method: The influence of glycosides on the proliferation of MDA-MB-231 cells was analyzed by clonogenic assay. Briefly, MDA-MB-231 cells were cultured on 6-well plates at a density of 1 × 10^3 cells per well in control media (MEM media, 10% FBS, 10,000 U/mL of penicillin and 10,000 μg/mL of streptomycin) or in media supplemented with different concentrations of glycosides. Cells were incubated for one week at 37 °C with 5% CO2 until the cells in the control plates formed colonies that were visible to the eye and were of a substantial size (at least 50 cells per colony). For fixation and staining, the media were removed and the cells were washed twice with PBS. The colonies were fixed with methanol for 25 min, then washed with PBS and stained with 0.5% crystal violet solution for 25 min at room temperature. The plates were then washed with water and air dried.

For series [3], the system named is MDA-MB-231 cells. Kind of series: Wound scratch migration assay. To be noted: MDA-MB-231, 0.05 µM, 24 h. The format is cell-based, human. The source says: To analyze the influence of the tested compounds on tumor cell migration, MDA-MB-231 cells attached to the plate’s plastic bottom were separated by a silicone insert from special migration plates (Culture-insert 2 Well 24, ibiTreat); then, the insert was removed, leaving a gap of 500 ± 50 μm (according to the manufacturer’s data) between the cells. The cells were washed twice by PBS to remove cell debris and floating cells and loaded with a fluorescent probe, a (5,6)-carboxyfluorescein succinimidyl ester (CFDA SE) dye (LumiTrace CFDA SE kit, Lumiprobe, Moscow, Russia). The initial solution of CFDA SE at a concentration of 5 mM in DMSO was dissolved in PBS to prepare a 10 μM solution and was added to the cells for 5 min at 37 °C; then, the cells were washed twice with PBS, and fresh culture medium was added. After that, the cells were treated with various concentrations of glycosides and left for 8 and 24 h. Cells treated with culture medium only were used as control. Cell migration into the wound area was then observed under a fluorescence microscope (MIB-2-FL, LOMO, Saint Peterburg, Russia) with an objective ×10 magnification.

Where two headings read alike, the source gives them in different places.

One may read the IC50 as the concentration that inhibits the measured activity by half. The EC50 is the concentration needed to bring the measured effect to its halfway point. With `COC1C(O)C(CO)OC(OC2C(O)COC(OC3C(C)OC(OC4C(OC5CCC6(C)C7CCC89C(=O)OC(C)(CC(=O)CC(C)C)C8C(OC(C)=O)CC9(C)C7=CCC6C5(C)C)OCC(OS(=O)(=O)[O-])C4O)C(O)C3O)C2O)C1O.[Na+]` (centres unmarked) [okhotoside A1-1], the “ED50, Erythrocytes” value in the series on human erythrocytes came out at 0.75 ± 0.09 µM. The concentration for half-maximal inhibition (IC50) with HL-60 cells is 2.52 ± 0.26 µM; in the series with HEK293 cells, 3.17 ± 0.7 µM; in the series on MCF-7 cells, 8.34 ± 0.12 µM; in the series on T-47D cells, 8.46 ± 0.65 µM; in the series with MDA-MB-231 cells [1], 2.34 ± 0.53 µM. The half-maximal effective concentration (EC50) in the series on MDA-MB-231 cells [1] (MDA-MB-231, 24 h, read-out: Cytotoxic effect EC50 on MDA-MB-231, 24 h) is 2.34 µM; with MDA-MB-231 cells [1] (MDA-MB-231, 48 h, read-out: Cytotoxic effect EC50 on MDA-MB-231, 48 h), 2.05 µM; in the series with MDA-MB-231 cells [1] (MDA-MB-231, 72 h, read-out: Cytotoxic effect EC50 on MDA-MB-231, 72 h) it was 1.73 µM. The “Inhibition of formation and growth of colonies, % of the control” value with MDA-MB-231 cells [2] was 70.76 ± 0.13%. For the same compound, the “Inhibition of migration in comparison with control” value in the series on MDA-MB-231 cells [3] turned out to be 74.76 ± 4.41%.

For the compound `CO[C@@H]1[C@@H](O)[C@H](O[C@@H]2[C@@H](O)[C@H](O[C@H]3[C@H](O)[C@@H](O[C@H]4OC[C@H](O)[C@H](O)[C@@H]4O)[C@H](O[C@H]4[C@H](O[C@H]5CC[C@]6(C)[C@@H]7CC[C@]89C(=O)O[C@@](C)(C[C@@H](O)CC(C)C)[C@H]8[C@@H](OC(C)=O)C[C@@]9(C)C7=CC[C@H]6C5(C)C)OC[C@@H](OS(=O)(=O)O)[C@@H]4O)O[C@@H]3C)OC[C@H]2O)O[C@H](CO)[C@H]1O` [frondoside D], the “ED50, Erythrocytes” value with human erythrocytes is 9.22 ± 0.10 µM. Also, the IC50 in the series with HL-60 cells is 18.08 ± 0.08 µM; in the series on HEK293 cells it was 9.45 ± 0.78 µM; with MCF-7 cells, 23.2 ± 0.92 µM; in the series with T-47D cells, 11.8 ± 1.1 µM; in the series with MDA-MB-231 cells [1], 12 ± 1.28 µM.

The values above are taken from publication PMC10342010, “Djakonoviosides A, A1, A2, B1–B4 — Triterpene Monosulfated Tetra- and Pentaosides from the Sea Cucumber Cucumaria djakonovi: The First Finding of a Hemiketal Fragment in the Aglycones; Activity against Human Breast Cancer Cell Lines” (International Journal of Molecular Sciences, 2023).
